In patent US11566057B2, “Long-acting co-agonists of the glucagon and GLP-1 receptors” (Merck Sharp & Dohme Corp., priority 2017, dated 2023):
Numbered stars: 1 amine (or outer) side, 2 acyl side, 3 side chain; on linkers, the order of the positions; unused ones are H or OH. Square brackets hold non-standard residues; d marks the D form. Side chains are listed from the residue outwards. Peptide text beside a SMILES is read from it. * marks the point of attachment. C20 diacid = O=C(O)CCCCCCCCCCCCCCCCCCC(=O)*; Phe(4-CH2NH2) = NCc1ccc(C[C@H](N)C(=O)O)cc1; C18 diacid = O=C(O)CCCCCCCCCCCCCCCCC(=O)*; αMeW = C[C@](N)(Cc1c[nH]c2ccccc12)C(=O)O; γGlu = O=C(O)[C@H](CCC(=O)[*:2])N[*:1]; Met(O2) = CS(=O)(=O)CC[C@H](N)C(=O)O; αMeD = C[C@](N)(CC(=O)O)C(=O)O; AEEA = NCCOCCOCC(=O)O; Aib = CC(C)(N)C(=O)O

Target: T1, human GCGR (Homo sapiens, UniProt P47871)
T1 construct: expressed in transfected cells; growth medium holds Blasticidin and Hygromycin
Assay: cAMP activity assay at the Glucagon receptor (GCGR)
Assay type: cell-based
Conditions: for hGCGR/hGLP1R (hTone): ratio of GCGR EC50 to GLP1R EC50
Procedure: Activity of the peptides at the Glucagon receptor (GCGR) and GLP-1 receptor (GLP1R) was measured in a cAMP activity assay.
GCG/GLP-1 receptor co-agonist peptides were dissolved in 100% DMSO (dimethyl sulfoxide) and serially diluted to generate 10 point titrations. The peptide solutions were then transferred into 384-well assay plates (150 nL/well). Assay ready frozen cells expressing human GLP1R or human GCGR were suspended in growth media consisting of DMEM medium (GIBCO®), 10% FBS (GIBCO®), 1×NEAA(GIBCO®), 1×P/S (GIBCO®), 10 ug/mL Blasticidin (GIBCO®) and 200 μg/mL Hygromycin (GIBCO®). […] The cell suspensions (15 μL) were then added to the assay plates containing the peptide solutions (30,000 cells/well for human GCGR; 10,000 cells/well for human GLP1R). The cells were incubated for 1 hour at room temperature in the dark. Production of cAMP was determined using HitHunter™ cAMPXS kits (DiscoverX) following manufacturer protocol. The plates were incubated for overnight at room temperature in the dark. Luminescence was measured using an EnVision Multilabel plate reader (Perkin Elmer). Native GLP-1 and Glucagon (Bachem) are used as control peptides. EC50 values were calculated using uses a 4 parameter logistic fit based on the Levenberg-Marquardt algorithm.

T1 sequence (P47871 26-477): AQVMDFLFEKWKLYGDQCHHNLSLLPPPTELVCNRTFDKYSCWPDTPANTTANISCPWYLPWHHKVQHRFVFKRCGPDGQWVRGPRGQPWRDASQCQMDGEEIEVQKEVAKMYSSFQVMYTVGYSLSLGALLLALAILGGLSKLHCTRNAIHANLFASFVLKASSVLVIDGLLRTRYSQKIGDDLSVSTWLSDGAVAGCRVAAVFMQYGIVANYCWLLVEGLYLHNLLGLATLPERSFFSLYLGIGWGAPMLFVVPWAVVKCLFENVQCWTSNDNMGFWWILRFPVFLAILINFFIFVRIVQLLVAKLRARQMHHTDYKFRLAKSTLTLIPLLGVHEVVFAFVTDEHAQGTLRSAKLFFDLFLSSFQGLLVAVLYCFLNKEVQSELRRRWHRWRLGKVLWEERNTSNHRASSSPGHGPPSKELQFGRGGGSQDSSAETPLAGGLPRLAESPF

Molecule | hGCGR/hGLP1R (hTone) | EC50 (cells expressing human GCGR, cAMP production, buffer with or without 20% human serum (not stated which), read-out: GCGR EC50 human)
CC(C)C[C@H](NC(=O)[C@H](Cc1ccc(O)cc1)NC(=O)[C@H](CCCCN)NC(=O)[C@H](CO)NC(=O)[C@H](Cc1ccc(O)cc1)NC(=O)[C@H](CC(=O)O)NC(=O)[C@H](CO)NC(=O)[C@@H](NC(=O)[C@H](Cc1ccccc1)NC(=O)[C@@H](NC(=O)CNC(=O)[C@H](CCC(N)=O)NC(=O)C(C)(C)NC(=O)[C@@H](N)Cc1c[nH]cn1)[C@@H](C)O)[C@@H](C)O)C(=O)N[C@@H](CC(=O)O)C(=O)N[C@@H](C)C(=O)N[C@@H](CCCNC(=N)N)C(=O)N[C@@H](C)C(=O)N[C@@H](C)C(=O)N[C@@H](CCC(N)=O)C(=O)N[C@@H](CC(=O)O)C(=O)N[C@@H](Cc1ccccc1)C(=O)N[C@H](C(=O)N[C@@H](Cc1ccc(CNC(=O)CC[C@H](NC(=O)CCCCCCCCCCCCCCCCC(=O)O)C(=O)O)cc1)C(=O)N[C@@H](Cc1c[nH]c2ccccc12)C(=O)N[C@@H](CC(C)C)C(=O)N[C@@H](CC(C)C)C(=O)N[C@@H](CC(=O)O)C(=O)N[C@H](C(N)=O)[C@@H](C)O)C(C)C [TP639] (H-H[Aib]QGTFTSDYSKYLDARAAQDFV[Phe(4-CH2NH2)]([γGlu-C18 diacid])WLLDT-NH2; N-terminus assumed) | 1.6 | 
CC(C)C[C@H](NC(=O)[C@H](Cc1ccc(O)cc1)NC(=O)[C@H](CCCCN)NC(=O)[C@H](CO)NC(=O)[C@H](Cc1ccc(O)cc1)NC(=O)[C@H](CC(=O)O)NC(=O)[C@H](CO)NC(=O)[C@@H](NC(=O)[C@H](Cc1ccccc1)NC(=O)[C@@H](NC(=O)CNC(=O)[C@H](CCC(N)=O)NC(=O)C(C)(C)NC(=O)[C@@H](N)Cc1c[nH]cn1)[C@@H](C)O)[C@@H](C)O)C(=O)N[C@@H](CC(=O)O)C(=O)N[C@@H](C)C(=O)N[C@@H](CCCNC(=N)N)C(=O)N[C@@H](C)C(=O)N[C@@H](C)C(=O)N[C@@H](CCCCNC(=O)COCCOCCNC(=O)COCCOCCNC(=O)CC[C@H](NC(=O)CCCCCCCCCCCCCCCCCCC(=O)O)C(=O)O)C(=O)N[C@@H](CC(=O)O)C(=O)N[C@@H](Cc1ccccc1)C(=O)N[C@H](C(=O)N[C@@H](CCC(N)=O)C(=O)N[C@@H](Cc1c[nH]c2ccccc12)C(=O)N[C@@H](CC(C)C)C(=O)N[C@@H](CCS(C)(=O)=O)C(=O)N[C@@](C)(CC(=O)O)C(=O)N[C@H](C(N)=O)[C@@H](C)O)C(C)C [TP565] (H-H[Aib]QGTFTSDYSKYLDARAAK([AEEA-AEEA-γGlu-C20 diacid])DFVQWL[Met(O2)][αMeD]T-NH2; N-terminus assumed) | 2.4 | 
CC(C)C[C@H](NC(=O)[C@H](Cc1ccc(O)cc1)NC(=O)[C@H](CCCCN)NC(=O)[C@H](CO)NC(=O)[C@H](Cc1ccc(O)cc1)NC(=O)[C@H](CC(=O)O)NC(=O)[C@H](CO)NC(=O)[C@@H](NC(=O)[C@H](Cc1ccccc1)NC(=O)[C@@H](NC(=O)CNC(=O)[C@H](CCC(N)=O)NC(=O)C(C)(C)NC(=O)[C@@H](N)Cc1c[nH]cn1)[C@@H](C)O)[C@@H](C)O)C(=O)N[C@@H](CC(=O)O)C(=O)N[C@@H](C)C(=O)N[C@@H](CCCNC(=N)N)C(=O)N[C@@H](C)C(=O)N[C@@H](C)C(=O)N[C@@H](CCCCNC(=O)COCCOCCNC(=O)CC[C@H](NC(=O)CCCCCCCCCCCCCCCCC(=O)O)C(=O)O)C(=O)N[C@@H](CC(=O)O)C(=O)N[C@@H](Cc1ccccc1)C(=O)N[C@H](C(=O)N[C@@H](CCC(N)=O)C(=O)N[C@@H](Cc1c[nH]c2ccccc12)C(=O)N[C@@H](CC(C)C)C(=O)N[C@@H](CCS(C)(=O)=O)C(=O)N[C@@](C)(CC(=O)O)C(=O)N[C@H](C(N)=O)[C@@H](C)O)C(C)C [TP628] (H-H[Aib]QGTFTSDYSKYLDARAAK([AEEA-γGlu-C18 diacid])DFVQWL[Met(O2)][αMeD]T-NH2; N-terminus assumed) | 0.6 | 0.86 nM
CC(C)C[C@H](NC(=O)[C@H](Cc1c[nH]c2ccccc12)NC(=O)[C@H](CCCCNC(=O)COCCOCCNC(=O)COCCOCCNC(=O)CC[C@H](NC(=O)CCCCCCCCCCCCCCCCC(=O)O)C(=O)O)NC(=O)[C@@H](NC(=O)[C@H](Cc1ccccc1)NC(=O)[C@H](CC(=O)O)NC(=O)[C@H](CCC(N)=O)NC(=O)[C@H](C)NC(=O)[C@H](C)NC(=O)[C@H](CCCNC(=N)N)NC(=O)C(C)(C)NC(=O)[C@H](CC(=O)O)NC(=O)[C@H](CC(C)C)NC(=O)[C@H](Cc1ccc(O)cc1)NC(=O)[C@H](CCCCN)NC(=O)[C@H](CO)NC(=O)[C@H](Cc1ccc(O)cc1)NC(=O)[C@H](CC(=O)O)NC(=O)[C@H](CO)NC(=O)[C@@H](NC(=O)[C@H](Cc1ccccc1)NC(=O)[C@@H](NC(=O)CNC(=O)[C@H](CCC(N)=O)NC(=O)C(C)(C)NC(=O)[C@@H](N)Cc1c[nH]cn1)[C@@H](C)O)[C@@H](C)O)C(C)C)C(=O)N[C@@H](CCS(C)(=O)=O)C(=O)N[C@@H](CC(=O)O)C(=O)N[C@H](C(N)=O)[C@@H](C)O [TP575] (H-H[Aib]QGTFTSDYSKYLD[Aib]RAAQDFVK([AEEA-AEEA-γGlu-C18 diacid])WL[Met(O2)]DT-NH2; N-terminus assumed) | 0.7 | 
HsQGTFTSDNle(1,2,3-triazole-4-γE-C16)SKYLDARAAQDFVQWLLDT-NH2 (HXQGTFTSDXSKYLDARAAQDFVQWLLDT; D-Ser, Nle-triazole-γE-C16 lipid; C-terminal amide; peptide TP830; (2)..(2) Xaa is D-Serine; (10)..(10) Xaa is Nle(1,2,3-triazole-4-gammaGlu-C16); (29)..(29) Xaa is C-terminal amide) | 0.64 | 
CC(C)C[C@H](NC(=O)[C@H](Cc1ccc(O)cc1)NC(=O)[C@H](CCCCN)NC(=O)[C@H](CO)NC(=O)[C@H](Cc1ccc(O)cc1)NC(=O)[C@H](CC(=O)O)NC(=O)[C@H](CO)NC(=O)[C@@H](NC(=O)[C@H](Cc1ccccc1)NC(=O)[C@@H](NC(=O)CNC(=O)[C@H](CCC(N)=O)NC(=O)C(C)(C)NC(=O)[C@@H](N)Cc1c[nH]cn1)[C@@H](C)O)[C@@H](C)O)C(=O)N[C@@H](CC(=O)O)C(=O)N[C@@H](C)C(=O)N[C@@H](CCCCN)C(=O)N[C@@H](C)C(=O)N[C@@H](C)C(=O)N[C@@H](CCCCNC(=O)COCCOCCNC(=O)COCCOCCNC(=O)CC[C@H](NC(=O)CCCCCCCCCCCCCCCCC(=O)O)C(=O)O)C(=O)N[C@@H](CC(=O)O)C(=O)N[C@@H](Cc1ccccc1)C(=O)N[C@H](C(=O)N[C@@H](CCC(N)=O)C(=O)N[C@@H](Cc1c[nH]c2ccccc12)C(=O)N[C@@H](CC(C)C)C(=O)N[C@@H](CCS(C)(=O)=O)C(=O)N[C@@H](CC(=O)O)C(=O)N[C@H](C(N)=O)[C@@H](C)O)C(C)C [TP598] (H-H[Aib]QGTFTSDYSKYLDAKAAK([AEEA-AEEA-γGlu-C18 diacid])DFVQWL[Met(O2)]DT-NH2; N-terminus assumed) | 2.3 | 
CC(C)C[C@H](NC(=O)[C@H](Cc1ccc(O)cc1)NC(=O)[C@H](CCCCN)NC(=O)[C@H](CO)NC(=O)[C@H](Cc1ccc(O)cc1)NC(=O)[C@H](CC(=O)O)NC(=O)[C@H](CO)NC(=O)[C@@H](NC(=O)[C@H](Cc1ccccc1)NC(=O)[C@@H](NC(=O)CNC(=O)[C@H](CCC(N)=O)NC(=O)C(C)(C)NC(=O)[C@@H](N)Cc1c[nH]cn1)[C@@H](C)O)[C@@H](C)O)C(=O)N[C@@H](CC(=O)O)C(=O)N[C@@H](C)C(=O)N[C@@H](CCCNC(=N)N)C(=O)N[C@@H](C)C(=O)N[C@@H](C)C(=O)N[C@@H](CCCCNC(=O)COCCOCCNC(=O)COCCOCCNC(=O)CC[C@H](NC(=O)CCCCCCCCCCCCCCCCC(=O)O)C(=O)O)C(=O)N[C@@H](CC(=O)O)C(=O)N[C@@H](Cc1ccccc1)C(=O)N[C@H](C(=O)N[C@@H](CCC(N)=O)C(=O)N[C@@](C)(Cc1c[nH]c2ccccc12)C(=O)N[C@@H](CC(C)C)C(=O)N[C@@H](CCS(C)(=O)=O)C(=O)N[C@@](C)(CC(=O)O)C(=O)N[C@H](C(N)=O)[C@@H](C)O)C(C)C [TP632] (H-H[Aib]QGTFTSDYSKYLDARAAK([AEEA-AEEA-γGlu-C18 diacid])DFVQ[αMeW]L[Met(O2)][αMeD]T-NH2) | 0.9 | 
CC(C)C[C@H](NC(=O)[C@H](Cc1ccc(O)cc1)NC(=O)[C@H](CCCCN)NC(=O)[C@H](CO)NC(=O)[C@H](Cc1ccc(O)cc1)NC(=O)[C@H](CC(=O)O)NC(=O)[C@H](CO)NC(=O)[C@@H](NC(=O)[C@H](Cc1ccccc1)NC(=O)[C@@H](NC(=O)CNC(=O)[C@H](CCC(N)=O)NC(=O)C(C)(C)NC(=O)[C@@H](N)Cc1c[nH]cn1)[C@@H](C)O)[C@@H](C)O)C(=O)N[C@@H](CC(=O)O)C(=O)N[C@@H](C)C(=O)N[C@@H](CCCNC(=N)N)C(=O)N[C@@H](C)C(=O)N[C@@H](C)C(=O)N[C@@H](CCC(N)=O)C(=O)N[C@@H](Cc1ccc(CNC(=O)COCCOCCNC(=O)COCCOCCNC(=O)CC[C@H](NC(=O)CCCCCCCCCCCCCCCCC(=O)O)C(=O)O)cc1)C(=O)N[C@@H](Cc1ccccc1)C(=O)N[C@H](C(=O)N[C@@H](CCC(N)=O)C(=O)N[C@@H](Cc1c[nH]c2ccccc12)C(=O)N[C@@H](CC(C)C)C(=O)N[C@@H](CC(C)C)C(=O)N[C@@H](CC(=O)O)C(=O)N[C@H](C(N)=O)[C@@H](C)O)C(C)C [TP443] (H-H[Aib]QGTFTSDYSKYLDARAAQ[Phe(4-CH2NH2)]([AEEA-AEEA-γGlu-C18 diacid])FVQWLLDT-NH2) | 1.8 | 
